Source: publication PMC11814083, “Effect of pH and buffer on substrate binding and catalysis by cis-aconitate decarboxylase” (Scientific Reports, 2025)

Assays:
Assay in all cases: HPLC of itaconate, UV […] nm, Michaelis-Menten fit
Type in all cases: biochemical
aCAD = biological target: T1, aCAD (Aspergillus terreus, UniProt B3IUN8); details: pH 7.0, 37 °C, 50 mM MOPS, 100 mM NaCl; 95% confidence interval in brackets; other pH 5.5-7.5 also in table
T1 construct: gene cad1; aa 12-490, recombinant from E. coli, clone CAD16 (by order of listing), purified; homodimer
T1 sequence (B3IUN8 12-490): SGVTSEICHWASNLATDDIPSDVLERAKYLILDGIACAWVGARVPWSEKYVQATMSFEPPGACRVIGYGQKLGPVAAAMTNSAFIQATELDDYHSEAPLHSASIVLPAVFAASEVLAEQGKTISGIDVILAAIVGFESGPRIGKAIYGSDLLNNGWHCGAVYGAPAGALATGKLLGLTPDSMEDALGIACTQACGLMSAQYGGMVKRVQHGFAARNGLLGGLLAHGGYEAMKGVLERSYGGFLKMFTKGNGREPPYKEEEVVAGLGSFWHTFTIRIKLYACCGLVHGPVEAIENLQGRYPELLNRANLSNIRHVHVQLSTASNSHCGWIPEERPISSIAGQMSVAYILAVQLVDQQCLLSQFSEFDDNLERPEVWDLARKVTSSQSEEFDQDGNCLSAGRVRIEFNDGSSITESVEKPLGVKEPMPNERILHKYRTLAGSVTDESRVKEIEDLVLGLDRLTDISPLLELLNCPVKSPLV

hACOD1 = biological target: T2, hACOD1 (Homo sapiens, UniProt A6NK06); details: pH 7.0, 37 °C, 50 mM MOPS, 100 mM NaCl; 95% confidence interval in brackets; other pH 5.5-8.25 also in table
T2 construct: gene ACOD1; aa 4-461, recombinant from E. coli, clone CAD29, purified; homodimer
T2 sequence (A6NK06 4-461): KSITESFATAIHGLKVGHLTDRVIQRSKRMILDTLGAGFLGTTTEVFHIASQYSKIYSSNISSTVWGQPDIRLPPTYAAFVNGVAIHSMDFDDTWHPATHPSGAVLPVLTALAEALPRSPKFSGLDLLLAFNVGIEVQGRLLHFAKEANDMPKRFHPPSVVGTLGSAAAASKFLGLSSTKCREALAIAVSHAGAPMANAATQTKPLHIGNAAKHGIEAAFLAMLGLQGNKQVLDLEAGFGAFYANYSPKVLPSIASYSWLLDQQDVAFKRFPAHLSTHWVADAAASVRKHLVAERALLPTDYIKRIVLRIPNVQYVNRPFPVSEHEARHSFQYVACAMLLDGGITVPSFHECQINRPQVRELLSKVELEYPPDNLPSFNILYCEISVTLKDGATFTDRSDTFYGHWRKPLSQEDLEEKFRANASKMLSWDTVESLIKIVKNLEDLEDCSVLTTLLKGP

mACOD1 = biological target: T3, mACOD1 (Mus musculus, UniProt P54987); details: pH 7.0, 37 °C, 50 mM MOPS, 100 mM NaCl; 95% confidence interval in brackets; other pH 5.5-8.25 also in table
T3 construct: gene Acod1; aa 4-461, recombinant from E. coli, clone CAD39 (by order of listing), purified; homodimer
T3 sequence (P54987 4-461): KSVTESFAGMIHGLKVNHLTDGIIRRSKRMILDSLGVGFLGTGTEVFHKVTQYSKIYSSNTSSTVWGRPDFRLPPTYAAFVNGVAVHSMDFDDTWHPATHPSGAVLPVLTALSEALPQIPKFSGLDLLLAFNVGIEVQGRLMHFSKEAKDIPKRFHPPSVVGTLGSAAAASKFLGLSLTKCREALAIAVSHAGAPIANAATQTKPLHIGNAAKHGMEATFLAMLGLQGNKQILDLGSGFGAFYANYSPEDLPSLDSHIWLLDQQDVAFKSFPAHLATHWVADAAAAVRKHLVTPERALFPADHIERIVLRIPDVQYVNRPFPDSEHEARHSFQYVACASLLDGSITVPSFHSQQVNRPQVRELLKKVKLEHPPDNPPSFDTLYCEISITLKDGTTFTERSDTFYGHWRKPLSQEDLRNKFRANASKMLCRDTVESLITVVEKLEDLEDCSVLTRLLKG

O=C(O)/C=C(/CC(=O)O)C(=O)O [cis-aconitate]
KM (95% confidence interval) (mM) / aCAD / kcat (95% confidence interval) (s^-1) / kcat/KM (M^-1 s^-1) (aCAD): 2.1 (1.9-2.5) mM | KM (95% confidence interval) (mM) / hACOD1 / kcat (95% confidence interval) (s^-1) / kcat/KM (M^-1 s^-1) (hACOD1): 0.23 (0.21-0.26) mM | Michaelis constant (KM) (mACOD1): 0.17 (0.15-0.19) mM
